Assay results as given in article PMC5339975, “Cytotoxicity, antimicrobial and antioxidant activity of eight compounds isolated from Entada abyssinica (Fabaceae)” (BMC Research Notes, 2017).
≈ marks a conversion by molar mass, not a printed value. Read-outs that look alike come from different tables or passages of the source. Marks after values point to notes of the source that are not given here.

Legend:
[1] = Ferric reducing antioxidant power (FRAP) assay; settings: mean ± SD of three experiments
Protocol: The antioxidant activity by the ferric reducing antioxidant power (FRAP) was assessed according to the method previously described with slight modifications.

[2] = MTT cytotoxicity assay, normal cells; type: cell-based; settings: monkey
Protocol: (§1) Cancer cell lines including human monocytic THP-1 and murine macrophage RAW 264.7 cells and the normal mammalian Vero monkey kidney cell line were obtained from the American Type Culture Collection (Rockville, MD, USA). They were maintained in DMEM under standard cell culture conditions at 37 °C and 5% CO2 in a humidified environment.
(§2) The 3-(4,5-dimethylthiazol-2-yl)-2,5-diphenyltetrazolium bromide (MTT) assay was used to determine the cytotoxicity of the compounds as previously described. The selectivity index (SI) values to identify selective anti-cancer cell activity were calculated by dividing the LC50 values of normal Vero cells by the LC50 of cancer cells.

ABTS radical assay = settings: mean ± SD of three experiments
Protocol: The antioxidant activity by ABTS was assessed according to the method previously described.

[3] = test system: Staphylococcus aureus ATCC 29213; assay: Antibacterial MIC, INT microdilution; type: cell-based; settings: ATCC29213, read-out: MIC Sa
Protocol: (§3) The six bacterial strains included: Pseudomonas aeruginosa ATCC 27853, Bacillus cereus ATCC 14579, Staphylococcus aureus ATCC 29213, Escherichia coli ATCC 25922, Salmonella typhimurium ATCC 14028 and Enterococcus faecalis ATCC 29212. The antimicrobial activity was evaluated by determining the minimal inhibitory concentration (MIC) by the rapid p-iodonitrotetrazolium violet (INT) microdilution method as previously described.

[4] = test system: Escherichia coli ATCC 25922; assay: Antibacterial MIC, INT microdilution; type: cell-based; settings: ATCC25922, read-out: MIC Ec
Protocol: as §3

[5] = test system: Enterococcus faecalis ATCC 29212; assay: Antibacterial MIC, INT microdilution; type: cell-based; settings: ATCC29212, read-out: MIC Ef
Protocol: as §3

[6] = test system: Pseudomonas aeruginosa ATCC 27853; assay: Antibacterial MIC, INT microdilution; type: cell-based; settings: ATCC27853, read-out: MIC Pa
Protocol: as §3

[7] = test system: Salmonella typhimurium ATCC 14028; assay: Antibacterial MIC, INT microdilution; type: cell-based; settings: Salmonella enterica, read-out: MIC St
Protocol: as §3

[8] = test system: Bacillus cereus ATCC 14579; assay: Antibacterial MIC, INT microdilution; type: cell-based; settings: ATCC14579, read-out: MIC Bc
Protocol: as §3

THP-1 cells = assay: MTT cytotoxicity assay, cancer cells; type: cell-based; settings: Homo sapiens, THP-1, read-out: THP-1 LC50
Protocol: as §1, §2

RAW 264.7 cells = assay: MTT cytotoxicity assay, cancer cells; type: cell-based; settings: Mus musculus, RAW264.7, read-out: RAW 264.7 LC50
Protocol: as §1, §2

[9] = DPPH radical-scavenging assay; settings: mean ± SD of three experiments
Protocol: The DPPH radical-scavenging activity was assessed by the method previously described.

Vero monkey kidney cells = assay: MTT cytotoxicity assay, normal cells; type: cell-based; settings: normal Vero cells, MTT, mean ± SD
Protocol: as §1, §2

S. aureus = settings: cited from earlier work

| SMILES | ABTS (IC50) (ABTS radical assay) | MIC [3] [µg/mL] | MIC [4] [µg/mL] | MIC [5] [µg/mL] | MIC [6] [µg/mL] | MIC ([7]; Salmonella typhimurium) [µg/mL] | MIC [8] [µg/mL] | DPPH (IC50) [9] | FRAP [1] | CC50 [2] [µg/mL] | CC50 (THP-1 cells) [µg/mL] | CC50 (RAW 264.7 cells) [µg/mL] | Vero LC50 (Vero monkey kidney cells) | CC50 ([2]; normal Vero cells, MTT, mean ± SD, read-out: Vero LC50) [µg/mL] | MIC [7] [µg/mL] | MIC (S. aureus) [µg/mL] |
| --- | --- | --- | --- | --- | --- | --- | --- | --- | --- | --- | --- | --- | --- | --- | --- | --- |
| C[C@@H]1CC[C@@]2(C)C(C(=O)O)=CCC[C@@H]2[C@@]1(C)CC(=O)O [Compound 5, 13,14,15,16-tetranor-3-clerodene-12,18-dioic acid] | – (– 100 µg/mL) | > 100 | > 100 | > 100 | > 100 | > 100 | > 100 | – (– 100 µg/mL) | 5.09 ± 0.40^c µmol FeSO4/g | 41.9 ± 1.85 (≈ 149 µM) | 21.8 ± 1.11 (≈ 77.8 µM) | 16.1 ± 1 (≈ 57.4 µM) |  |  |  |  |
| COc1ccc(C[C@H](N)C(=O)N[C@H]2[C@@H](O)[C@H](n3cnc4c(N(C)C)ncnc43)O[C@@H]2CO)cc1 [Puromycin, reference compound] |  |  |  |  |  |  |  |  |  |  | 0.4 ± 0.02 (≈ 0.848 µM) | 1.15 ± 0.17 (≈ 2.44 µM) | 5.32 ± 0.90^i µg/mL |  |  |  |
| C[C@@H]1O[C@@H](Oc2c(-c3ccc(O)c(O)c3)oc3cc(O)cc(O)c3c2=O)[C@H](O)[C@H](O)[C@H]1O [Compound 2, quercetin-3-O-α-L-rhamnoside] | 3.53 ± 0.39^b µg/mL | 12.5 (≈ 27.9 µM) | 50 (≈ 112 µM) | 25 (≈ 55.8 µM) | 50 (≈ 112 µM) |  | 12.5 (≈ 27.9 µM) | 0.9 ± 0.06^b µg/mL | 76.01 ± 1.10^b µmol FeSO4/g |  | > 100 | 16.4 ± 0.2 (≈ 36.7 µM) |  | 44.8 ± 2.83 (≈ 100 µM) | 3.12 (≈ 6.96 µM) |  |
| C[C@H]1[C@H](C)CC[C@]2(C(=O)O)CC[C@]3(C)C(=CC[C@@H]4[C@@]5(C)CC[C@H](O)C(C)(C)[C@@H]5CC[C@]43C)[C@H]12 [Compound 1, ursolic acid] |  | 12.5 (≈ 27.4 µM) | > 100 | > 100 | > 100 | 100 (≈ 219 µM) | 6.25 (≈ 13.7 µM) |  |  | 22.4 ± 2.48 (≈ 49.1 µM) | 9.62 ± 0.59 (≈ 21.1 µM) | 4.56 ± 0.02 (≈ 9.98 µM) |  |  |  | 4 (≈ 8.76 µM) |
| O=C(CCCCCCCCCCCCCCCCCCCCCCCCC(=O)OC[C@@H](O)CO)OC[C@@H](O)CO [Compound 8, bis-[(S)-(2,3-dihydroxypropyl)] hexacosanedioate] | – (– 100 µg/mL) | > 100 | > 100 | > 100 | > 100 | > 100 | > 100 | – (– 100 µg/mL) | 22.98 ± 4.29^f µmol FeSO4/g | 80.5 ± 4.83 (≈ 140 µM) | 65 ± 6.88 (≈ 113 µM) | 86.5 ± 4.61 (≈ 151 µM) |  |  |  |  |
| COc1cccc2c1C(=O)c1c(O)c3c(c(O)c1C2=O)C[C@@](O)(C(=O)CO)C[C@@H]3O[C@H]1C[C@H](N)[C@H](O)[C@H](C)O1 [Doxorubicin, reference compound] |  |  |  |  |  |  |  |  |  |  | > 100 | 0.5 (≈ 0.92 µM) | 9.35 ± 0.66^h µg/mL |  |  |  |
| COC(=O)/C=C(/C)CC[C@]1(C)[C@H]2CCC=C(C(=O)O)[C@]2(C)CC[C@@H]1C [Compound 4, (8S)-kolavic acid 15-methyl ester] | – (– 100 µg/mL) | 25 (≈ 71.7 µM) | > 100 | > 100 | > 100 | 100 (≈ 287 µM) | 25 (≈ 71.7 µM) | – (– 100 µg/mL) | 1.93 ± 0.14^a µmol FeSO4/g | 47.5 ± 0.63 (≈ 136 µM) | 49.8 ± 3.03 (≈ 143 µM) | 52.3 ± 1.3 (≈ 150 µM) |  |  |  |  |
| CNC(C)C1CCC(N)C(OC2C(N)CC(N)C(OC3OCC(C)(O)C(NC)C3O)C2O)O1 (centres unmarked) [Gentamicin, reference compound] |  | 0.5 (≈ 1.05 µM) | 1 (≈ 2.09 µM) | 0.25 (≈ 0.523 µM) | 0.25 (≈ 0.523 µM) | 2 (≈ 4.19 µM) | 0.5 (≈ 1.05 µM) |  |  |  |  |  |  |  |  |  |

Second part, led by results:

| ABTS (IC50) (ABTS radical assay) | MIC [3] [µg/mL] | MIC [4] [µg/mL] | MIC [5] [µg/mL] | MIC [6] [µg/mL] | MIC ([7]; Salmonella typhimurium) [µg/mL] | MIC [8] [µg/mL] | DPPH (IC50) [9] | SMILES | FRAP [1] | CC50 [2] [µg/mL] | CC50 (THP-1 cells) [µg/mL] | CC50 (RAW 264.7 cells) [µg/mL] | Vero LC50 (Vero monkey kidney cells) | CC50 ([2]; normal Vero cells, MTT, mean ± SD, read-out: Vero LC50) [µg/mL] | MIC [7] [µg/mL] | MIC (S. aureus) [µg/mL] |
| --- | --- | --- | --- | --- | --- | --- | --- | --- | --- | --- | --- | --- | --- | --- | --- | --- |
| 4.15 ± 1.21^d,e µg/mL |  |  |  |  |  |  | 3.44 ± 1.9^a,f µg/mL | O=C1O[C@H]([C@@H](O)CO)C(O)=C1O [Ascorbic acid, reference compound] |  |  |  |  |  |  |  |  |
| 10.38 ± 2.4^a,f µg/mL |  |  |  |  |  |  | 8.71 ± 2.03^e µg/mL | Cc1c(C)c2c(c(C)c1O)CCC(C)(C(=O)O)O2 (centres unmarked) [Trolox, reference compound] |  |  |  |  |  |  |  |  |
| 2.53 ± 0.49^d µg/mL | 50 (≈ 272 µM) | > 100 | > 100 | > 100 | 25 (≈ 136 µM) | 50 (≈ 272 µM) | 0.48 ± 0.02^c µg/mL | COC(=O)c1cc(O)c(O)c(O)c1 [Compound 6, methyl gallate] | 103.98 ± 13.70^d µmol FeSO4/g | 30.6 ± 3.09 (≈ 166 µM) | 75 ± 1.68 (≈ 407 µM) | 36.9 ± 1.27 (≈ 200 µM) |  |  |  |  |
| 4.13 ± 0.10^e µg/mL | 12.5 (≈ 36.3 µM) | 12.5 (≈ 36.3 µM) | > 100 | 25 (≈ 72.6 µM) | 1.56 (≈ 4.53 µM) | 25 (≈ 72.6 µM) | 1.12 ± 0.10^c,d µg/mL | COc1c(O)c(O)cc2c1COc1c-2oc2cc(O)cc(O)c2c1=O [Compound 7, entadanin] | 72.41 ± 2.02^b,e µmol FeSO4/g | 55.65 ± 0.3 (≈ 162 µM) | 84.3 ± 3.3 (≈ 245 µM) | 19.1 ± 0.25 (≈ 55.5 µM) |  |  |  |  |
